We go through two compounds from patent US20150148387A1, “METHODS OF TREATMENT, DIAGNOSIS AND […] METHA[…] WHICH TARGET CERAMIDE METABOLIC […] AND […] SENESCENCE” (priority 2012, published 2015).

The structures appear in SMILES notation. Counter-ions that a name gives are not always drawn. Like-named read-outs stand apart in the source and are kept apart here.

In series [1] the test system is primary mouse embryonic fibroblasts (MEF). In kind it is cell-based. The procedure: (§1) Cells were washed with ice-cold phosphate-buffered saline (PBS) and scraped into 0.5 ml of methanol/water (1:1, vol:vol) containing the internal standards listed below. Protein concentrations were measured using the BCA protein assay (Pierce, Rockford, Ill., USA). Lipids were extracted with chloroform/methanol (2:1, vol:vol; 1.0 mL). The organic phases were collected, dried under nitrogen and dissolved in methanol for LC/MS analyses.
(§2) Helium was used as collision gas. […] Mobile phase composition was as described above.
(§3) Mouse embryonic fibroblasts (MEFs) were prepared from mice embryo as previously reported. Briefly, pregnant mice at day 13 post coitum were sacrificed and the uteri were dissected out. Each embryo was separated from the placenta and the head and visceral tissues were removed. The remaining body was minced in PBS and incubated with 0.1 mM trypsin/1 mM EDTA at 37° C. for 15 min. Two volumes of Dulbecco's Modified Eagle Medium (DMEM) containing 10% fetal bovine serum (FBS) was added and stood for 5 minutes to settle down large pieces of unbroken tissues. The supernatant was then removed and centrifuged at 200×g for 5 min and suspended in fresh DMEM containing 10% FBS. Cells were cultured at 37° C. with 5% CO2.

In series [2] the test system is cytochrome P450 (CYP). Description: Cell-associated methamphetamine content in MEF with CYP inhibitor (LC/MS). As to conditions: methamphetamine 1 mM 24 h, inhibitor 1-10 μM.
Series [3] deals with primary mouse embryonic fibroblasts (MEF). In words: ROS production in MEF (CM-H2DCFDA). It counts as cell-based. To be noted: CYP inhibitors with methamphetamine. The protocol:
Production of ROS was measured using the fluorescent probe CM-H2DCFDA (Invitrogen). This carboxy derivative of fluorescein carries additional negative charges that improve its retention compared to noncarboxylated forms. For these experiments, MEFs were grown in DMEM without phenol red, for which anti-oxidative properties have been reported. Cells were plated to subconfluence in 12-well plates, washed 3 times with pre-warmed PBS and loaded for 30 min at 37° C./5% CO2 with […] CM-H2DCFDA in DMEM without phenol red (loading medium). Then the loading medium was removed and pre-warmed fresh medium containing the different CYP450 inhibitors in presence or absence of methamphetamine was added. Fluorescence (excitation at 485 nm, emission at 530 nm) was analyzed immediately, cells were incubated at 37° C./5% CO2, and fluorescence was analyzed at the indicated time points. ROS rate versus control (%) was calculated subtracting the percentage of ROS increasing from time zero in the methamphetamine-treated samples to the percentage of ROS increasing from time zero in vehicle-treated samples.

The subject of series [4] is de novo ceramide biosynthesis. Description: Acute methamphetamine administration in rats: tissue lipid levels.
Experimental: Forty-six male Sprague-Dawley rats (Charles River, Wilmington, Mass.), weighing approximately 360-420 g were used in these experiments.
Three groups of rats were used for these experiments. Group 1: On the day of the experiment, rats received two i.p. injections of methamphetamine, 10 mg/kg (n=6), or saline (n=6) every 2 h. Two hours after the last administration of methamphetamine or saline, rats were euthanized by decapitation. Brain, liver, kidney (left), heart, skin (hind paw), skeletal muscle (vastus lateralis muscle) were harvested. Brains and livers were snap-frozen in isopentane and other tissues were snap-frozen in liquid nitrogen and stored at −80° C. Group 2: On the day of the experiment, rats received two i.p. injections of methamphetamine, 1.5 mg/kg (n=6), or saline (n=6) every 2 h. Other details are the same as for group 1. Group 3: On the day of the experiment, five rats received two i.p. injections of 1.5 mg/kg methamphetamine every 2 h; five rats received two i.p. injections of 5 mg/kg methamphetamine every 2 h; six rats received two i.p. injections of 10 mg/kg D-methamphetamine every 2 h, and six rats received two i.p. injections of saline every 2 h. Two hours after the last injection, blood was collected by cardiac puncture under isoflurane anesthesia and immediately afterwards brain, skeletal muscle and skin were harvested and handled as described for group 1.
Briefly, frozen brain samples were weighed and homogenized in cold methanol containing appropriate internal standards (listed below). Lipids were extracted by adding chloroform and water (2/1, vol/vol) and fractionated through open-bed silica gel columns by progressive elution with chloroform/methanol mixtures. Fractions eluted from the columns were dried under nitrogen, reconstituted in chloroform/methanol (1:4, vol/vol; 0.1 ml) and subjected to LC/MS.
Sphingolipid molecular species were analyzed by tandem mass spectrometry, using an Agilent 1100 liquid chromatography coupled to an ESI-ion-trap XCT mass detector. Dihydroceramides and ceramides were separated on a Poroshell 300 SB C18 column (2.1×75 mm i.d., 5 μm; Agilent Technologies) maintained at 30° C. […] Extracted ion chromatograms were used to quantify the following ceramides: d18:1/16:0 [M+H]^+ (m/z=538.5>520.5>264.3), d18:0/16:0 [M+H]^+ (m/z=540.5>522.5), d18:1/18:0 [M+H]^+ (m/z=566.5>548.5>264.3), d18:0/18:0 [M+H]^+ (m/z=568.5>550.5), d18:1/24:0 [M+H]^+ (m/z=650.6>632.8>2643), d18:0/24:0 [M+H]^+ (m/z=652.6>634.8), d18:1/24:1 [M+H]^+ (m/z=648.6>630.8>264.3), d18:0/24:1 [M+H]^+ (m/z=650.6>632.8), using d18:1/12:0 [M+H]^+ (m/z=482.5>464.5>264.3) as an internal standard. […]
Series [5] has as its system primary mouse embryonic fibroblasts (MEF). In words: Population doubling. It counts as cell-based. As to conditions: 1 mM; compared to control cells. The procedure: We plated 1×10^6 cells on a 60 mm dishes and treated them with 1 mM methamphetamine. Cells were trypsinized and re-plated at the same density (1×10^6 cells/dish) every 3 days for 6 passages. Population doublings were calculated according to the formula log (final cell number/plated cell number/log 2).

The subject of series [6] is isolated mitochondria from primary MEF. In words: Lipid analysis of isolated mitochondria from MEF. It counts as cell-based, mouse. As to conditions: methamphetamine 1 mM. The procedure:
as §1, §2, §3

Series [7] has as its system primary mouse embryonic fibroblasts (MEF). In kind it is cell-based. To be noted: 1 mM, 48 h. The procedure:
Detection of senescence-associated β-galactosidase staining was performed as previously reported. Briefly, we plated MEFs on Lab-Tek chamber slides at a density of 5×10^4 cells per chamber. Next day, cells were treated with the indicated dose of drug for 48 hours. Cells were washed twice with PBS and fixed in 2% formaldehyde/0.2% glutaraldehyde for five minutes at room temperature. After two PBS washes the slides were incubated with fresh β-galactosidase stain solution (1 mg/mL 5-bromo-4-chloro-3-indoyl β-D-galactoside (X-Gal) 40 mM sodium phosphate, pH 6.0, 5 mM potassium ferrocyanide, 5 mM potassium ferricyanide, 150 mM NaCl, and 2 mM MgCl2) at 37° C. for 12-16 hours. Slides were washed with PBS and mounted with DAPI containing media. Images were taken for the β-gal staining and overlapped with fluorescent images taken of the same region to count the number of cells staining positive for β-gal (Nikon Eclipse E600). More than 200 cells from 5 different regions of a slide were counted in a blind fashion.

Series [8] shares this test system. In words: Crystal violet staining, cell morphology. It counts as cell-based. To be noted: 48 h, 1 mM, passage 2. The procedure:
To study cell morphology, cells were plated and treated in 6-well plates. After fixation, with 4% paraformaldehyde cells were stained with crystal violet (0.5% crystal violet in methanol:PBS, 1:1, v/v). After thorough wash in tap water, images were taken using a Westover Scientific Series 8 microscope.

Series [9] relates to ceramide synthase (CerS). Description: Acute methamphetamine administration in rats: ceramide synthase activity. It counts as in vivo, rat. To be noted: non-contingent methamphetamine administration; data not shown. The procedure: Three groups of rats were used for these experiments. […] Other details are the same as for group 1.
(§4) Fresh rat tissues were collected in 1 ml of homogenization buffer (25 mM HEPES, pH 7.4, containing 5 mM EGTA, 50 mM NaF, and complete mini EDTA-free protease inhibitor). Tissues were disrupted using pulse homogenizer, and centrifuged at 800×g for 5 min. The postnuclear supernatant was centrifuged at 250,000×g for 30 min at 4° C. in ultracentrifuge. The microsomal membrane pellet was resuspended in 250-500 μl of homogenization buffer. Protein concentration was measured using the BCA protein assay (Pierce, Rockford, Ill.).
Ceramide synthase activity was measured at 37° C. for 1 hr in HEPES buffer (20 mM, pH 7.4) containing 2 mM MgCl2, fatty acid-free bovine serum albumin (20 μmol) membrane proteins (0.05-0.1 mg), using dihydrosphingosine (sphinganine d17:0, 20 μmol) and palmitoyl-coenzyme A (70 μmol) as substrates. The reactions were stopped by adding chloroform-methanol (2:1, v/v) containing C12:0 ceramide (d18:1/12:0) as an internal standard. […] Products of reaction were measured using an Agilent 1100-LC system coupled to ion-trap XCT and interfaced with ESI (Agilent Technologies). […] For quantification purposes, we monitored the ions at m/z 526.5>508.5 for C17:0 dihydroceramide (d17:0/16:0) and m/z 482.5>464.5>264.3 for C12:0 ceramide (d18:1/12:0).

In series [10] the test system is ceramide synthase (CerS). In words: Methamphetamine self-administration in rats: ceramide synthase activity in tissue. To be noted: self-administering rats; data not shown. In kind it is in vivo, rat. The procedure: as §4
Ceramide synthase activity was measured at 37° C. for 1 hr in HEPES buffer (20 mM, pH 7.4) containing 2 mM MgCl2, fatty acid-free bovine serum albumin (20 μmol) membrane proteins (0.05-0.1 mg), using dihydrosphingosine (sphinganine d17:0, 20 μmol) and palmitoyl-coenzyme A (70 μmol) as substrates. The reactions were stopped by adding chloroform-methanol (2:1, v/v) containing C12:0 ceramide (d18:1/12:0) as an internal standard. Lipid extracts were dried under nitrogen and reconstituted in chloroform-methanol (1:3, v/v; 0.1 ml) for LC-MS analyses. Products of reaction were measured using an Agilent 1100-LC system coupled to ion-trap XCT and interfaced with ESI (Agilent Technologies). […] For quantification purposes, we monitored the ions at m/z 526.5>508.5 for C17:0 dihydroceramide (d17:0/16:0) and m/z 482.5>464.5>264.3 for C12:0 ceramide (d18:1/12:0).

The test system of series [11] is de novo ceramide biosynthesis. In words: Methamphetamine self-administration in rats: lipidomic analysis of tissues by LC/MS.
Experimental: Male Sprague-Dawley rats (Charles River, Wilmington, Mass.), weighing approximately 360-440 g at the beginning of the self-administration experiment, were individually housed in a temperature- and humidity-controlled environment under a reversed lighting 12-h light/dark cycle (lights on at 7:00 p.m.). The rats were allowed free access to food (NIH07 biscuits) in their home cage throughout the study. Water was available ad libitum in the home cage and in the testing chamber. Rats were tested in the light phase. They were experimentally and drug naïve at the beginning of this study.
Each of eighteen standard operant-conditioning chambers (Coulbourn Instruments, Lehigh Valley, Pa.) contained a white house light and two holes with nose-poke operanda on either side of a food trough. Upon activation, each nose poke produced a brief feedback tone. […] The tubing was attached to a syringe pump (Harvard Apparatus, South Natick, Mass.), which was programmed to deliver 2-s injections. The injected volume was adjusted for every animal to deliver a methamphetamine dose of 0.1 mg/kg/injection. Experimental events were controlled by microcomputers using MED Associates interfaces and software (Med Associates Inc., East Fairfield, Vt.).
Silastic catheter was implanted into the external jugular vein under anesthesia with a mixture of ketamine and xylazine (60 and 10 mg/kg i.p., respectively). Catheter exited the skin behind the ear. After catheter implantation, a nylon bolt glued to an acrylic mesh was implanted subcutaneously in the midscapular region. The nylon bolt served as a tether, preventing the catheter from being pulled out during self-administration sessions. Following surgery, the IV catheter was flushed daily during the first week with 0.2-0.3 ml of solution containing cephalosporin (100 mg/ml; Cefazolin For Injection, USP; Hospira Inc., Lake Forest, Ill., USA) and then flushed before and after each daily session with saline to maintain its patency) and then flushed after each daily session with saline to maintain its patency.
Each experimental group was divided into two subgroups that were tested simultaneously. One subgroup served as yoked controls and passively received an injection of saline (which was not contingent on responding) each time a response-contingent injection of 0.1 mg/kg methamphetamine was actively self-administered by the first subgroup of rats. […] The first experimental groups consisted of 12 rats self-administering methamphetamine and 6 yoked control rats. The second experimental group consisted of 9 rats self-administering methamphetamine and 9 yoked control rats. The third experimental group consisted of 16 rats self-administering methamphetamine and 8 yoked control rats. […] The pretreatment with L-CS was always given immediately before and after each session and the catheter was flushed with 0.5 ml of saline afterwards. Before and after sessions 4 and 5 animals received dose 10 mg/kg of L-CS and before and after sessions 6, 7, and 8 they received dose 20 mg/kg of L-CS. The animals received total dose 160 mg/kg of L-CS during the experiment.
Eight consecutive 15-hour sessions were conducted between 4 p.m. and 8 a.m. Rats and the food in the feeders were weighed before the start of each session. At the start of each session, a white house light was turned on and a priming injection of 0.1 mg/kg methamphetamine (or saline for yoked group), sufficient to fill the “dead” space of the IV catheter, was automatically delivered. Rats learned to self-administer methamphetamine under one-response, fixed ratio schedule (FRI) of i.v. methamphetamine injection with 30-s time-out duration.
The test system of series [12] is primary mouse embryonic fibroblasts (MEF). Description: DNA replication assay ([3H]thymidine). As to conditions: 48 h, 1 mM.
Series [13] relates to ceramide content and IL-6 and p21 mRNA. Description: Acute experiment in mice: methamphetamine alone or in combination with L-CS. To be noted: acute treatment with methamphetamine alone.
Series [14] concerns primary mouse embryonic fibroblasts (MEF). In words: Gene expression in MEF. It counts as cell-based. The protocol:
Total RNA was extracted from frozen tissues using TRIzol reagent (Invitrogen, Carlsbad, Calif.) and was purified with the RNeasy mini kit (Qiagen, Valencia, Calif.). First-strand complementary DNAs were synthesized using SuperScript II RNaseH reverse transcriptase (Invitrogen). Reverse transcription of total RNA (2 μg) was carried out using oligo(dT)12-18 primers for 50 min at 42° C. mRNA levels were measured by quantitative real-time polymerase chain reaction (RT-PCR) with a Mx 3000P system (Stratagene, La Jolla, Calif.). The following list of primers and fluorogenic probes purchased from Applied Biosystems (TaqMan Gene Expression Assays, Foster City, Calif.): Ceramide Synthase 1 (Rn01420081_m1), Ceramide Synthase 2 (Rn01762789_m1), Ceramide Synthase 4 (Rn01767402_m1), Ceramide Synthase 5 (Rn01532864_m1), Ceramide Synthase 6 (Rn01270930_m1), Interleukin-6 (Rn01410330_m1). mRNA levels were normalized using beta actin, 18S ribosomal protein or glyceraldehyde-3-phosphate dehydrogenase as internal standards. Additional PCR primers were designed using Primer 3 (https://www.Frodo.wit.mit.edu), and the sequences are shown in S.Table XXX.
as §3

[15] abbreviates: skeletal muscle, rats self-administering methamphetamine vs controls.
[16] abbreviates: skeletal muscle, self-administering rats vs controls.

In turn, `Clc1ccccc1C(c1ccccc1)(c1ccccc1)n1ccnc1` [clotrimazole] showed a baseline ceramide content in series [1] (MEF without methamphetamine, inhibitor 10 μM, n=3, […]) of 49.2±3 pmol-mg^−1 protein. In series [1] (MEF, inhibitor 1-10 μM), the methamphetamine-induced ceramide accumulation entry is given as “decreased”. Further, the “levels of non-metabolized methamphetamine” value in series [2] is “increased”. Moreover, the “release of ROS evoked by methamphetamine” value in [3] is recorded as “prevented”.

In the case of `CN[C@@H](C)Cc1ccccc1` [methamphetamine, S(+)-methylamphetamine HCl], in series [4] (dorsal striatum, 2×10 mg/kg intraperitoneal), the “striatal levels of various ceramide species” value was “marked increase”. Moreover, the “changes in ceramide species” value in series [4] (low doses (i.e., non-toxic)) was “did not induce any changes”. For the same compound, in series [4] (plasma, skeletal muscle, heart, liver and skin, 2×10 mg/kg intraperitoneal), the “ceramide levels in peripheral tissues” value was “marked increases”. In addition, the “d18:1/16:0 ceramide levels” value in [4] (rat skeletal muscle, intraperitoneal 3, 10, and 20 mg/kg) is “dose-dependent increase”. Besides, the “number of population doublings” value in [5] is on record as “decreased”. In addition, in series [6], the “long chain ceramides (d18:1/24:0 and d18:1/24:1)” value is “mitochondrial specific increase”; the “short chain ceramide (d18:1/16:0)” value was “increases”. Also, the “number of SA-β-gal positive cells” value in series [7] (passage 1 to 4, vs vehicle-treated cells) was “increased”. Also, the “increase in the number of SA-β-gal positive cells” value in [7] (passage 3, versus non-treated cells) is on record as “greater than 4 fold”. Further, in series [7] (passage 5), the “number of SA-β-gal positive cells” value is reported as “did not further increase”. Further, the cell morphology entry in [8] was “morphological changes typical of senescent phenotype”. Further, in series [9], the CerS activity result is “increased”. Also, the CerS activity result in series [10] is “increased”. In series [1] (incubation of MEF with the drug alone), the “ceramide (d18:1/16:0) content” value is recorded as “increased ceramide (d18:1/16:0) in a dose-dependent manner”. In series [11] (setting [15]), the “increase in ceramide (d18:1/16:0)” value turned out to be 4 fold and the “increase in dihydroceramide (d18:1/16:0)” value turned out to be 4 fold. Besides, in [11] (setting [16]), the “levels of dihydrosphingomyelin (d18:1/16:0)” value is given as “unchanged” and the “levels of sphingomyelin (d18:1/16:0)” value is recorded as “unchanged”. Further, in series [11] (various tissues, largest increase in skeletal muscle, heart and liver, methamphetamine-exposed rats vs controls), the multiple ceramide species entry is “substantially increased”. In addition, the “DNA synthesis, [3H]-thymidine” value in series [12] is on record as “decreased”. Besides, in series [13], the ceramide content result is on record as “increased”. Moreover, the “mRNA levels of the genes involved de novo ceramide biosynthesis” value in [14] (MEF treated with methamphetamine) is on record as “increased”. Also, the “p21 and p53 transcription” value in series [14] (MEF, methamphetamine treatment) is on record as “increase”.
